Test results as given in ChEMBL document CHEMBL1777761, “Tryptamine derivatives as novel non-nucleosidic inhibitors against hepatitis B virus” (Bioorg Med Chem, 2011).

Legend:
Hepatitis B virus = assay: Antiviral activity against Hepatitis B virus infected in human HepG2(2.2.15) cells assessed as inhibition of viral DNA replication after 4 days by RT-PCR analysis; type: functional, organism-based; settings: HepG2 2.2.15, 96 h
[1] = Cytotoxicity against human HepG2(2.2.15) cells after 8 days by MTT assay; type: cell-based
[2] = Selectivity index, ratio of CC50 for human HepG2.2.15 cells to IC50 for Hepatitis B virus; type: functional

Row | Structure (SMILES) | IC50 (Hepatitis B virus) [µM] | CC50 at 192 h [1] [µM] | Ratio CC50/IC50 [2]
1 | CCCN(CCC)CCc1c[nH]c2ccccc12 | > 100 | > 100 | –
2 | CC(C)CN(CCc1c[nH]c2ccccc12)CC(C)C | 12.2 | > 100 | >8.2
3 | CC(C)CCN(CCc1c[nH]c2ccccc12)CCC(C)C | 0.4 | 40.6 | 102
4 | c1ccc2c(CCN(CC3CC3)CC3CC3)c[nH]c2c1 | 6 | > 100 | >16.7
5 | c1ccc2c(CCN(CC3CCCCC3)CC3CCCCC3)c[nH]c2c1 | > 100 | > 33.3 | –
6 | c1ccc(CN(CCc2c[nH]c3ccccc23)Cc2ccccc2)cc1 | 13 | 12.4 | 0.95
7 | c1ccc(CN(CCc2c[nH]c3ccccc23)Cc2ccccn2)nc1 | > 25 | 5.8 | –
8 | c1coc(CN(CCc2c[nH]c3ccccc23)Cc2ccco2)c1 | 3.5 | 27.3 | 7.8
9 | c1csc(CN(CCc2c[nH]c3ccccc23)Cc2cccs2)c1 | 3.9 | > 33.3 | >8.5
10 | COc1cc(OC)c(OC)cc1CN(CCc1c[nH]c2ccccc12)Cc1cc(OC)c(OC)cc1OC | 1.2 | 21 | 17.2
11 | O=[N+]([O-])c1cccc(CN(CCc2c[nH]c3ccccc23)Cc2cccc([N+](=O)[O-])c2)c1 | > 100 | > 100 | –
12 | C[N+](C)([O-])CCc1c[nH]c2ccccc12 | 17.6 | > 100 | >5.7
13 | CC[N+]([O-])(CC)CCc1c[nH]c2ccccc12 | > 100 | > 100 | –
14 | CCC[N+]([O-])(CCC)CCc1c[nH]c2ccccc12 | > 100 | > 100 | –
15 | CC(C)C[N+]([O-])(CCc1c[nH]c2ccccc12)CC(C)C | > 100 | > 100 | –
16 | CC(C)CC[N+]([O-])(CCc1c[nH]c2ccccc12)CCC(C)C | – | 77.6 | –
17 | [O-][N+](CCc1c[nH]c2ccccc12)(CC1CC1)CC1CC1 | > 100 | > 100 | –
18 | [O-][N+](CCc1c[nH]c2ccccc12)(CC1CCCCC1)CC1CCCCC1 | > 100 | 23.1 | –

Row | Structure (SMILES) | IC50 (Hepatitis B virus) [µM] | CC50 at 192 h [1] [µM] | Ratio CC50/IC50 [2]
19 | [O-][N+](CCc1c[nH]c2ccccc12)(Cc1ccccc1)Cc1ccccc1 | > 100 | > 100 | –
20 | [O-][N+](CCc1c[nH]c2ccccc12)(Cc1ccccn1)Cc1ccccn1 | > 100 | 56.5 | –
21 | [O-][N+](CCc1c[nH]c2ccccc12)(Cc1ccco1)Cc1ccco1 | 7.5 | > 100 | >13.3
22 | [O-][N+](CCc1c[nH]c2ccccc12)(Cc1cccs1)Cc1cccs1 | 9.4 | > 100 | >10.6
23 | C[N+](C)([O-])CCc1c[nH]c2ccc(O)cc12 | < 1 | > 25 | >25
24 | C[N+](C)([O-])CCc1c[nH]c2ccc(Br)cc12 | 5.4 | > 25 | >4.6
25 | C[N+](C)([O-])CCc1c[nH]c2ccc(Cl)cc12 | 8.4 | > 25 | >3
26 | CC(C)CCNCCc1c[nH]c2ccccc12 | > 25 | > 25 | –
27 | CC(C)CCN(C)CCc1c[nH]c2ccccc12 | > 25 | > 25 | –
28 | CC(C)CCN(CCc1c[nH]c2ccccc12)Cc1ccco1 | 5.3 | > 25 | >4.7
29 | CCN(CCc1c[nH]c2ccccc12)CCC(C)C | > 25 | > 25 | –
30 | CCCN(CCc1c[nH]c2ccccc12)CCC(C)C | 20 | > 25 | >1.25
31 | CC(C)CCN(CCc1c[nH]c2ccccc12)Cc1cccs1 | 10.1 | > 25 | >2.5
32 | CC(C)CCN(CCc1c[nH]c2ccccc12)CC(C)C | 1.1 | > 25 | >23
33 | CC(C)CCN(CCc1cn(S(=O)(=O)c2ccccc2)c2ccccc12)CCC(C)C | > 25 | 15 | –
34 | CCN(CC)CCc1c[nH]c2ccccc12 [DIETHYLTRYPTAMINE] | > 100 | > 100 | –
35 | Nc1ccn([C@@H]2CS[C@H](CO)O2)c(=O)n1 [LAMIVUDINE] | 0.33 | 1170 | 3557
36 | CN(C)CCc1c[nH]c2ccccc12 [N,N-DIMETHYLTRYPTAMINE] | > 100 | > 100 | –
